This experiment deals with MV-4-11 cells. Kind of experiment: Gene expression microarray analysis (Affymetrix PrimeView) and GSEA. In kind it is cell-based, human. On the set-up: RFU PODN (11730768_x_at) / Fold change /veh PODN (11730768_x_at) / RFU LINC00158 (11744669_a_at) / Fold change /veh LINC00158 (11744669_a_at) / RFU DUSP10 (11751237_a_at) / Fold change /veh DUSP10 (11751237_a_at) / RFU ID3 (11757404_x_at) / Fold change /veh ID3 (11757404_x_at) / RFU PLEKHG5 (11737974_s_at) / Fold change /veh PLEKHG5 (11737974_s_at) / RFU LRRC4B (11730491_at) / Fold change /veh LRRC4B (11730491_at) / RFU GIMAP4 (11747438_a_at) / Fold change /veh GIMAP4 (11747438_a_at) / RFU KRT8 (11758183_x_at) / Fold change /veh KRT8 (11758183_x_at) / RFU CNN1 (11734310_a_at) / Fold change /veh CNN1 (11734310_a_at) / RFU VPS37D (11726825_at) / Fold change /veh VPS37D (11726825_at) / RFU C10orf10 (11716522_x_at) / Fold change /veh C10orf10 (11716522_x_at) / RFU KIR2DL2 /// KIR2DL4 /// KIR2DL5A /// KIR2DL5B /// KIR2DS1 /// KIR2DS2 /// KIR2DS3 /// KIR2DS4 /// KIR3DL3 /// KIR3DL3 /// KIR3DS1 (11738374_at) / Fold change /veh KIR2DL2 /// KIR2DL4 /// KIR2DL5A /// KIR2DL5B /// KIR2DS1 /// KIR2DS2 /// KIR2DS3 /// KIR2DS4 /// KIR3DL3 /// KIR3DL3 /// KIR3DS1 (11738374_at) / RFU C1QL1 (11718748_at) / Fold change /veh C1QL1 (11718748_at) / RFU TMPRSS4 (11747572_a_at) / Fold change /veh TMPRSS4 (11747572_a_at) / RFU HAMP (11756126_x_at) / Fold change /veh HAMP (11756126_x_at) / RFU RNFT2 (11725882_a_at) / Fold change /veh RNFT2 (11725882_a_at) / RFU NR4A2 (11747474_a_at) / Fold change /veh NR4A2 (11747474_a_at) / RFU ABCC12 (11746883_a_at) / Fold change /veh ABCC12 (11746883_a_at) / RFU TMEM136 (11760407_x_at) / Fold change /veh TMEM136 (11760407_x_at) / RFU CLDN22 /// WWC2 (11732394_at) / Fold change /veh CLDN22 /// WWC2 (11732394_at) / RFU HLA-DPB1 (11760878_x_at) / Fold change /veh HLA-DPB1 (11760878_x_at) / RFU SPINT1 (11716480_a_at) / Fold change /veh SPINT1 (11716480_a_at) / RFU GAP43 (11754022_s_at) / Fold change /veh GAP43 (11754022_s_at) / RFU A4GNT (11735810_at) / Fold change /veh A4GNT (11735810_at) / RFU PRB3 (11715151_x_at) / Fold change /veh PRB3 (11715151_x_at) / RFU TUBB4B (11761932_at) / Fold change /veh TUBB4B (11761932_at) / RFU CAPN14 (11732068_a_at) / Fold change /veh CAPN14 (11732068_a_at) / RFU TMCC2 (11721928_a_at) / Fold change /veh TMCC2 (11721928_a_at) / RFU IRGQ (11745062_a_at) / Fold change /veh IRGQ (11745062_a_at) / RFU FAM174B (11720279_a_at) / Fold change /veh FAM174B (11720279_a_at) / RFU TMPRSS4 (11748680_a_at) / Fold change /veh TMPRSS4 (11748680_a_at) / RFU FAM212B (11763350_a_at) / Fold change /veh FAM212B (11763350_a_at) / RFU PLEKHG5 (11743358_a_at) / Fold change /veh PLEKHG5 (11743358_a_at) / RFU ZSCAN30 (11745921_a_at) / Fold change /veh ZSCAN30 (11745921_a_at) / RFU CMKLR1 (11741424_a_at) / Fold change /veh CMKLR1 (11741424_a_at) / RFU LOC101060620 /// MAPK8IP1 (11723275_at) / Fold change /veh LOC101060620 /// MAPK8IP1 (11723275_at) / RFU SPTSSB (11747773_x_at) / Fold change /veh SPTSSB (11747773_x_at) / RFU PRSS12 (11739890_at) / Fold change /veh PRSS12 (11739890_at) / RFU BIN1 (11741810_x_at) / Fold change /veh BIN1 (11741810_x_at) / RFU WNT11 (11732464_a_at) / Fold change /veh WNT11 (11732464_a_at) / RFU C10orf10 (11716521_a_at) / Fold change /veh C10orf10 (11716521_a_at) / RFU C5orf56 (11738089_at) / Fold change /veh C5orf56 (11738089_at) / RFU CYB561 (11721691_x_at) / Fold change /veh CYB561 (11721691_x_at) / RFU ANKRD19P (11752326_a_at) / Fold change /veh ANKRD19P (11752326_a_at) / RFU OR2T12 /// OR2T33 /// OR2T8 (11738714_s_at) / Fold change /veh OR2T12 /// OR2T33 /// OR2T8 (11738714_s_at) / RFU VCAN (11748164_a_at) / Fold change /veh VCAN (11748164_a_at) / RFU JSRP1 (11732532_at) / Fold change /veh JSRP1 (11732532_at) / RFU KRTAP10-11 (11738290_x_at) / Fold change /veh KRTAP10-11 (11738290_x_at) / RFU MYO3A (11730013_a_at) / Fold change /veh MYO3A (11730013_a_at) / RFU EBF3 (11725865_a_at) / Fold change /veh EBF3 (11725865_a_at) / RFU CAMK2N1 (11719241_x_at) / Fold change /veh CAMK2N1 (11719241_x_at) / RFU C5orf56 (11738088_a_at) / Fold change /veh C5orf56 (11738088_a_at) / RFU OLFML3 (11715873_a_at) / Fold change /veh OLFML3 (11715873_a_at) / RFU LOC100653217 /// NTM (11731650_a_at) / Fold change /veh LOC100653217 /// NTM (11731650_a_at) / RFU MAPK11 (11762145_a_at) / Fold change /veh MAPK11 (11762145_a_at) / RFU FIZ1 (11724087_x_at) / Fold change /veh FIZ1 (11724087_x_at) / RFU OASL (11726364_x_at) / Fold change /veh OASL (11726364_x_at) / RFU SOX15 (11748057_x_at) / Fold change /veh SOX15 (11748057_x_at) / RFU CD79A (11719716_a_at) / Fold change /veh CD79A (11719716_a_at) / RFU HIST1H1D (11736915_at) / Fold change /veh HIST1H1D (11736915_at) / RFU CASKIN2 (11723855_a_at) / Fold change /veh CASKIN2 (11723855_a_at) / RFU LOC730098 (11760151_x_at) / Fold change /veh LOC730098 (11760151_x_at) / RFU OR4N2 (11742367_at) / Fold change /veh OR4N2 (11742367_at) / RFU PRRT2 (11749266_a_at) / Fold change /veh PRRT2 (11749266_a_at) / RFU SNX32 (11753110_a_at) / Fold change /veh SNX32 (11753110_a_at) / RFU CDHR5 (11726645_a_at) / Fold change /veh CDHR5 (11726645_a_at) / RFU RCAN1 (11760418_a_at) / Fold change /veh RCAN1 (11760418_a_at) / RFU FAM167A (11723789_a_at) / Fold change /veh FAM167A (11723789_a_at) / RFU FAM26E (11764081_at) / Fold change /veh FAM26E (11764081_at) / RFU ISYNA1 (11749810_s_at) / Fold change /veh ISYNA1 (11749810_s_at) / RFU ACY1 (11761880_at) / Fold change /veh ACY1 (11761880_at) / RFU 11764098_at / Fold change /veh 11764098_at / RFU SAMD14 (11745864_x_at) / Fold change /veh SAMD14 (11745864_x_at) / RFU NPB (11741838_a_at) / Fold change /veh NPB (11741838_a_at) / RFU TMPRSS6 (11731388_a_at) / Fold change /veh TMPRSS6 (11731388_a_at) / RFU KRTAP10-2 (11738614_at) / Fold change /veh KRTAP10-2 (11738614_at) / RFU ARHGAP8 /// PRR5-ARHGAP8 (11727945_x_at) / Fold change /veh ARHGAP8 /// PRR5-ARHGAP8 (11727945_x_at) / RFU KRTAP5-7 /// NADSYN1 (11734609_at) / Fold change /veh KRTAP5-7 /// NADSYN1 (11734609_at) / RFU RASL12 (11751679_a_at) / Fold change /veh RASL12 (11751679_a_at) / RFU CDKN2B (11736163_a_at) / Fold change /veh CDKN2B (11736163_a_at) / RFU PRF1 (11729649_at) / Fold change /veh PRF1 (11729649_at) / RFU, ZNF638 /// ZNF638-IT1 / Fold change vs veh, ZNF638 /// ZNF638-IT1 / RFU, PANK3 / Fold change vs veh, PANK3 / RFU, SH3YL1 / Fold change vs veh, SH3YL1 / RFU, ZEB2 / Fold change vs veh, ZEB2 / RFU, NRIP1 / Fold change vs veh, NRIP1 / RFU, PTTG1IP / Fold change vs veh, PTTG1IP / RFU, CAPN2 / Fold change vs veh, CAPN2 / RFU, MED14 / Fold change vs veh, MED14 / RFU, SNORA58 / Fold change vs veh, SNORA58 / RFU, C1orf63 / Fold change vs veh, C1orf63 / RFU, LRRFIP1 / Fold change vs veh, LRRFIP1 / RFU, NDUFAF7 / Fold change vs veh, NDUFAF7 / RFU, SLC12A2 / Fold change vs veh, SLC12A2 / RFU, IBTK / Fold change vs veh, IBTK / RFU, ESF1 / Fold change vs veh, ESF1 / Fold change vs veh, TMEM50B / RFU, TAOK1 / Fold change vs veh, TAOK1 / RFU, ACBD3 / Fold change vs veh, ACBD3 / RFU, TMA16 / Fold change vs veh, TMA16 / RFU, RWDD3 / Fold change vs veh, RWDD3 / RFU, BCAT1 / Fold change vs veh, BCAT1 / RFU, EDEM3 / Fold change vs veh, EDEM3 / RFU, TMEM33 / Fold change vs veh, TMEM33 / RFU, WDR75 / Fold change vs veh, WDR75 / RFU, AHCTF1 / Fold change vs veh, AHCTF1 / RFU, TFRC / Fold change vs veh, TFRC / RFU, ZDHHC17 / Fold change vs veh, ZDHHC17 / RFU, NOM1 / Fold change vs veh, NOM1 / RFU, ARL8B / Fold change vs veh, ARL8B / RFU, ZBTB11 / Fold change vs veh, ZBTB11 / RFU, TAMM41 / Fold change vs veh, TAMM41 / RFU, KIAA1704 /// LOC100996395 / Fold change vs veh, KIAA1704 /// LOC100996395 / RFU, ING1 / Fold change vs veh, ING1 / RFU, TRMT61B / Fold change vs veh, TRMT61B / RFU, FUBP3 / Fold change vs veh, FUBP3 / RFU, TP53 / Fold change vs veh, TP53 / RFU, TNKS2 / Fold change vs veh, TNKS2 / RFU, ZFP14 / Fold change vs veh, ZFP14 / RFU, ACTR2 / Fold change vs veh, ACTR2 / RFU, PPP3R1 / Fold change vs veh, PPP3R1 / RFU, PIK3R1 / Fold change vs veh, PIK3R1 / RFU, HNRNPA1 / Fold change vs veh, HNRNPA1 / RFU, RNF170 / Fold change vs veh, RNF170 / RFU, ZNF28 / Fold change vs veh, ZNF28 / RFU, RNGTT / Fold change vs veh, RNGTT / RFU, OGT / Fold change vs veh, OGT / RFU, BRD1 / Fold change vs veh, BRD1 / RFU, MARS / Fold change vs veh, MARS / RFU, ZNF655 / Fold change vs veh, ZNF655 / RFU, FAHD1 / Fold change vs veh, FAHD1 / RFU, BDP1 / Fold change vs veh, BDP1 / RFU, LRRCC1 / Fold change vs veh, LRRCC1 / RFU, ARID1A / Fold change vs veh, ARID1A / RFU, ZNF146 / Fold change vs veh, ZNF146 / RFU, ZNF330 / Fold change vs veh, ZNF330 / RFU, GPN3 / Fold change vs veh, GPN3 / RFU, C9orf123 / Fold change vs veh, C9orf123 / RFU, N4BP2L2 / Fold change vs veh, N4BP2L2 / RFU, ARFIP1 / Fold change vs veh, ARFIP1 / RFU, FAM179B / Fold change vs veh, FAM179B / RFU, BCL10 / Fold change vs veh, BCL10 / RFU, UHRF1BP1L / Fold change vs veh, UHRF1BP1L / RFU, BET1 / Fold change vs veh, BET1 / RFU, CNOT2 / Fold change vs veh, CNOT2 / RFU, ZNF268 / Fold change vs veh, ZNF268 / Fold change vs veh, ZNF507 / RFU, DGCR2 / Fold change vs veh, DGCR2 / RFU, WDSUB1 / Fold change vs veh, WDSUB1 / Fold change vs veh, HSP90B1 /// MIR3652 / RFU, ADSS / Fold change vs veh, ADSS / RFU, GK / Fold change vs veh, GK / RFU, ZNF148 / Fold change vs veh, ZNF148 / RFU, TAF9 / Fold change vs veh, TAF9 / RFU, SLC1A5 / Fold change vs veh, SLC1A5 / RFU, SLMO2 / Fold change vs veh, SLMO2 / RFU, ABCC4 / Fold change vs veh, ABCC4 / RFU, LOC101060439 /// RAP1B / Fold change vs veh, LOC101060439 /// RAP1B / RFU, RFX7 / Fold change vs veh, RFX7 / RFU, GTPBP10 / Fold change vs veh, GTPBP10 / RFU, CNEP1R1 / Fold change vs veh, CNEP1R1 / RFU, BIVM-ERCC5 /// ERCC5 / Fold change vs veh, BIVM-ERCC5 /// ERCC5 / RFU, ILF3 / Fold change vs veh, ILF3 / RFU 11762660_at / Fold change /veh 11762660_at / RFU VCAN (11757783_s_at) / Fold change /veh VCAN (11757783_s_at) / RFU DDX43 (11728927_at) / Fold change /veh DDX43 (11728927_at) / RFU KRT8 (11758188_x_at) / Fold change /veh KRT8 (11758188_x_at) / RFU NKD1 (11759106_at) / Fold change /veh NKD1 (11759106_at) / RFU SRD5A1 (11742802_a_at) / Fold change /veh SRD5A1 (11742802_a_at) / RFU TPSAB1 /// TPSB2 (11721975_s_at) / Fold change /veh TPSAB1 /// TPSB2 (11721975_s_at) / RFU GSTM3 (11746129_a_at) / Fold change /veh GSTM3 (11746129_a_at) / RFU IL23R (11737362_x_at) / Fold change /veh IL23R (11737362_x_at) / RFU TMEM51 (11727254_a_at) / Fold change /veh TMEM51 (11727254_a_at) / RFU PIWIL2 (11732686_x_at) / Fold change /veh PIWIL2 (11732686_x_at) / RFU ORM1 (11744905_x_at) / Fold change /veh ORM1 (11744905_x_at) / RFU CCDC152 (11743942_at) / Fold change /veh CCDC152 (11743942_at) / RFU ECM1 (11717891_a_at) / Fold change /veh ECM1 (11717891_a_at) / RFU IL23R (11748794_a_at) / Fold change /veh IL23R (11748794_a_at) / RFU TNFAIP8L3 (11732012_x_at) / Fold change /veh TNFAIP8L3 (11732012_x_at) / RFU MBOAT4 (11741988_at) / Fold change /veh MBOAT4 (11741988_at) / RFU 11764193_at / Fold change /veh 11764193_at / RFU TMEM53 (11763286_at) / Fold change /veh TMEM53 (11763286_at) / RFU MAGEB2 (11727129_at) / Fold change /veh MAGEB2 (11727129_at) / RFU TMEM200A (11744735_a_at) / Fold change /veh TMEM200A (11744735_a_at) / RFU CCDC152 (11751479_a_at) / Fold change /veh CCDC152 (11751479_a_at) / RFU FAM211A (11726209_a_at) / Fold change /veh FAM211A (11726209_a_at) / RFU RGS16 (11746705_a_at) / Fold change /veh RGS16 (11746705_a_at) / RFU VCAN (11755009_s_at) / Fold change /veh VCAN (11755009_s_at) / RFU RHOB (11743442_s_at) / Fold change /veh RHOB (11743442_s_at) / RFU RGS16 (11720943_a_at) / Fold change /veh RGS16 (11720943_a_at) / RFU RGS16 (11720944_at) / Fold change /veh RGS16 (11720944_at) / RFU, VPS4B / Fold change vs veh, VPS4B / RFU, CREB1 / Fold change vs veh, CREB1 / RFU, DNAJC13 / Fold change vs veh, DNAJC13 / RFU, GNAQ / Fold change vs veh, GNAQ / RFU, CDK5R1 / Fold change vs veh, CDK5R1 / RFU, ZRANB3 / Fold change vs veh, ZRANB3 / RFU, CUL4A / Fold change vs veh, CUL4A / RFU, CCNY / Fold change vs veh, CCNY / RFU, UFL1 / Fold change vs veh, UFL1 / RFU, COG3 / Fold change vs veh, COG3 / RFU, DIAPH2 / Fold change vs veh, DIAPH2 / RFU, SKA2 / Fold change vs veh, SKA2 / RFU, AFF3 / Fold change vs veh, AFF3 / RFU, LMF1 / Fold change vs veh, LMF1 / RFU, IPO11 / Fold change vs veh, IPO11 / RFU, DFFB / Fold change vs veh, DFFB / RFU, FOXP1 / Fold change vs veh, FOXP1 / RFU, CARD8 / Fold change vs veh, CARD8 / RFU, STRN3 / Fold change vs veh, STRN3 / RFU, ADK / Fold change vs veh, ADK / RFU, RASSF2 / Fold change vs veh, RASSF2 / RFU, WIPF1 / Fold change vs veh, WIPF1 / RFU, LARP1B / Fold change vs veh, LARP1B / RFU, RASA1 / Fold change vs veh, RASA1 / RFU, RB1 / Fold change vs veh, RB1 / RFU, PPFIA1 / Fold change vs veh, PPFIA1 / RFU, MAT2A / Fold change vs veh, MAT2A / RFU, CCT5 / Fold change vs veh, CCT5 / RFU, WDR92 / Fold change vs veh, WDR92 / RFU, CUX1 / Fold change vs veh, CUX1 / RFU, TTC7A / Fold change vs veh, TTC7A / RFU, TMEM135 / Fold change vs veh, TMEM135 / RFU, DEPTOR / Fold change vs veh, DEPTOR / RFU, CPM / Fold change vs veh, CPM / RFU, DNAJB6 / Fold change vs veh, DNAJB6 / RFU, CACNA2D3 / Fold change vs veh, CACNA2D3 / RFU, DTX4 / Fold change vs veh, DTX4 / RFU, TFCP2 / Fold change vs veh, TFCP2 / RFU, GMCL1 /// GMCL1P1 / Fold change vs veh, GMCL1 /// GMCL1P1 / RFU, AEBP2 / Fold change vs veh, AEBP2 / RFU, SNHG1 /// SNORD22 /// SNORD25 /// SNORD26 /// SNORD27 /// SNORD28 /// SNORD29 /// SNORD31 / Fold change vs veh, SNHG1 /// SNORD22 /// SNORD25 /// SNORD26 /// SNORD27 /// SNORD28 /// SNORD29 /// SNORD31 / Fold change (Aza/veh), C12orf56 (ProbeSet 11735607_a_at) / Fold change (ACY-1035/veh), C12orf56 (ProbeSet 11735607_a_at) / Fold change (Aza/veh), FGFR1OP (ProbeSet 11751329_s_at) / Fold change (ACY-1035/veh), FGFR1OP (ProbeSet 11751329_s_at) / Fold change (Aza/veh), VPS36 (ProbeSet 11739960_a_at) / Fold change (ACY-1035/veh), VPS36 (ProbeSet 11739960_a_at) / RFU SYPL1 (11715823_x_at) / Fold change /veh SYPL1 (11715823_x_at) / RFU IGFBP7 (11715501_s_at) / Fold change /veh IGFBP7 (11715501_s_at) / RFU REEP3 (11722064_at) / Fold change /veh REEP3 (11722064_at) / RFU IGLL1 (11728026_x_at) / Fold change /veh IGLL1 (11728026_x_at): dose or concentration left out as unconfirmed. The conditions noted are these: MV-4-11 cells, 48 hours.

For the compound `Nc1ccc(-c2cccs2)cc1NC(=O)c1ccc2c(c1)cc(C1CC1)n2CCN1CCOCC1` [ACY-1035], the “Fold change /veh SNX32 (11753110_a_at)” value came to 1.17.

The values above are taken from publication PMC5218480 (PLoS ONE, 2017).
